These results are taken from patent US7034047B2, “Triazole derivative” (Astellas Pharma, Inc., priority 2000, dated 2006).

Data set [1] has as its target T1, GLYT1 subtype of the glycine transporter (Rattus norvegicus, UniProt P28572).
T1 construct: C6 glioma cell expressing GLYT1 subtype of the glycine transporter; host or cells: C6 glioma cells
T1 sequence (P28572 1-638): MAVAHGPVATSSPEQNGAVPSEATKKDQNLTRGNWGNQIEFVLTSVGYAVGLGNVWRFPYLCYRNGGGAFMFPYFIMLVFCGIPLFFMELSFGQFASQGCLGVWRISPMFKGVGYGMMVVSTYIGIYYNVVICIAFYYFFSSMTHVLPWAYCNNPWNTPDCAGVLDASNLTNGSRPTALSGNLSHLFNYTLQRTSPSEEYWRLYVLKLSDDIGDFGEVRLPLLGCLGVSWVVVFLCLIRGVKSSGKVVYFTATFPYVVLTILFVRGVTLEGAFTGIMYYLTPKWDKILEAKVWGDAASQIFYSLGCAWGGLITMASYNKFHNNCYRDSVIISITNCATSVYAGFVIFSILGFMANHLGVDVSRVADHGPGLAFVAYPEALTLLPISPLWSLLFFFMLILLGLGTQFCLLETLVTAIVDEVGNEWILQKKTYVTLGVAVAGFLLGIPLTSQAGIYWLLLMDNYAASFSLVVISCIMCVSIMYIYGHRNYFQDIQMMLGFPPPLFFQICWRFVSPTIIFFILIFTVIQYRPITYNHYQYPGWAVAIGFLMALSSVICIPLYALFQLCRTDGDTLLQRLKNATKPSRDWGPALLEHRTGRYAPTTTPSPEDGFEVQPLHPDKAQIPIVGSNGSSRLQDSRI
Nature of the data set: [3H]-glycine uptake assay in C6 glioma cells (action of inhibiting glycine transporter). Type of data set: cell-based. As to conditions: 20 min at 37° C., read-out: GLYT-inhibiting activity IC50. How it is done: 1. Action of Inhibiting Glycine Transporter
C6 glioma cell (American Type Culture Collection) was cultured in DMEM containing 10% fetal bovine serum, 100 units/ml penicillin G and 0.1 mg/ml streptomycin sulfate in a CO2 incubator under conditions of 5% CO2 and 37° C.
[^3H]-glycine uptake was performed by the method of Gomeza, et al.
C6 glioma cells were plated out at a concentration of 2×10^4 cells/well in a 96-well plate (Culturplate, Packard Co.), for culturing for 2 days. Subsequently, [^3H]-glycine uptake was tested. The cell was rinsed once in a buffer (150 mM NaCl, 5 mM KCl, 1 mM CaCl2, 1 mM MgCl2, 10 mM glucose, 5 mM L-alanine, 10 mM Hepes-Na, pH 7.4), followed by subsequent addition of the buffer, for incubation at 37° C. for 10 minutes.
After incubation, the buffer was exchanged to a reaction buffer including [^3H]-glycine (about 0.2 μM, 41 Ci/mmol, New England Nuclear)and a compound to be assessed, for incubation at 37° C. for another 20 minutes. After 20-min reaction, the reaction mixture was rinsed in ice-cold PBS (phosphate buffered saline). The cell was dissolved in 0.1N NaOH solution, to assay the radioactivity incorporated with a liquid scintillation counter. The specific incorporation was defined as a portion substituted with 3 mM sarcosine in the total incorporation. The test compound was assessed by determining the incorporation-inhibiting ratio of the specific incorporation.

By IC50 is commonly meant the concentration that inhibits the measured activity by half. As for `CN(CC1CCCO1)c1nnc(-c2ccc(-c3ccccc3)cc2)n1-c1ccccc1F` (stereo not shown) [Example 236], in data set [1], the half-inhibitory concentration (IC50) worked out at 940 nM.
On to `CN(CCCSc1nnc(-c2ccc(-c3ccccc3)cc2)n1-c1ccccc1F)CC(=O)O` [Example 157], for which the half-inhibitory concentration (IC50) in data set [1] came out at 1500 nM.
On the same count and under the same terms, the value for `CC(C)c1nnc(-c2cnc(-c3ccccc3)c(Cl)c2)n1-c1c(F)cccc1F` [Example 112] was 1000 nM; that for `Cc1nnc(-c2ccc(-c3ccccc3)cc2)n1-c1ccccc1[N+](=O)[O-]` [Example 256] was 86 nM.
Usually melting point stands for the temperature of the solid-liquid transition. The molecule `CSc1nnc(-c2ccc(-c3ccccc3)cc2)n1-c1ccccc1F` [Example 12, 3-Biphenyl-4-yl-4-(2-fluorophenyl)-5-methylsulfanyl-4H-1,2,4-triazole] displayed a melting point of 199 to 200 °C.
Regarding `CCc1nnc(-c2ccc(-c3ccccc3)cc2)n1-c1ccccc1OC` [Compound 3, 3-(biphenyl-4-yl)-5-ethyl-4-(2-methoxyphenyl)-4H-1,2,4-triazole, reference compound], in data set [1], the IC50 is 350 nM.
As to `Fc1ccccc1-n1c(CN2CCc3sccc3C2)nnc1-c1ccc(-c2ccccc2)cc1` [Example 202], the half-inhibitory concentration (IC50) in data set [1] is 1600 nM.
For the molecule `COc1ccccc1-n1c(C)nnc1-c1ccc(-c2ccccc2)cc1` [Compound 1, 3-(biphenyl-4-yl)-4-(2-methoxyphenyl)-5-methyl-4H-1,2,4-triazole, reference compound], the IC50 in data set [1] was determined as 1000 nM.
For the molecule `CC(C)c1nnc(-c2ccc(-c3ccccc3)nc2)n1-c1cccc2nonc12` [Example 2, 4-[3-Isopropyl 5-(6-phenylpyridin-3-yl)-4H-1,2,4-triazol-4-yl]-2,1,3-benzooxadiazole], in data set [1], the IC50 is 100 nM.
Still for that read-out and setting: in the case of `COCCCc1nnc(-c2ccc(-c3ccccc3)nc2)n1-c1cccc(C#N)c1C` [Example 5, 3-[3-(3-Methoxypropyl)-5-(6-phenylpyridin-3-yl)-4H-1,2,4-triazol-4-yl]-2-methylbenzonitrile] it was 410 nM; in that of `c1ccc(-c2ccc(-c3nnc(-c4ccco4)n3-c3ccccc3)cc2)cc1` [Compound 2, 3-(biphenyl-4-yl)-5-(furan-2-yl)-4-phenyl-4H-1,2,4-triazole, reference compound], 4600 nM.
With `COCCN(C)c1nnc(-c2ccc(-c3ccccc3)nc2)n1-c1cccc2nonc12` [Example 9, 4-(2,1,3-Benzooxadiazol-4-yl)-N-(2-methoxyethyl)-N-methyl-5-(6-phenylpyridin-3-yl)-4H-1,2,4-triazol-3-ylamine], in data set [1], the 50% inhibitory concentration (IC50) came to 330 nM.
For the molecule `CC(C)c1nnc(-c2ccc(-c3ccccc3)nc2)n1-c1c(F)cccc1F` [Example 1, 5-[4-(2,6-Difluorophenyl)-5-isopropyl-4H-triazol-3-yl]-2-phenylpyridine], the IC50 in data set [1] came out at 140 nM.
Same read-out and setting: in the case of `COCCN(C)c1nnc(-c2ccc(-c3ccccc3)nc2)n1-c1ccccc1C#N` [Example 8, 2-{3-[N-(2-Methoxyethyl)-N-methylamino]-5-(6-phenylpyridin-3-yl)-4H-1,2,4-triazol-4-yl}benzonitrile] it was 250 nM; in that of `CCc1nnc(-c2ccc(-c3ccccc3)cc2)n1-c1ccccc1Oc1cccnc1` [Example 279], 4600 nM; in that of `Cc1nnc(-c2ccc(-c3cccs3)cc2)n1-c1ccccc1F` [Example 10, 4-(2-Fluorophenyl)-3-methyl-5-(4-thiophen-2-ylphenyl)-4H-1,2,4-triazole], 200 nM.
